Experiment [1] has as its system MCF-7. The experiment can be described thus: growth inhibition of human MCF-7 breast carcinoma cell line, crystal-violet assay. The format is cell-based. The text has this:
(§1) In Vitro Activity of Epothilone Derivatives on Human Tumor Cell Lines
(§2) a) IC50 values [nM] for the growth inhibition of human MCF-7-breast and multi-drug-resistant NCl/ADR-carcinoma cell lines of epothilone derivatives with 13Z-unsaturated in the crystal-violet assay in comparison to Taxol.
(§3) b) IC50 values [nM] for the growth inhibition of human MCF-7-breast- and multi-drug-resistant NCl/ADR carcinoma cell lines of epothilone derivative with 13,14-α-epoxide, which was formed from the 13-Z-configured double bond in the crystal-violet assay in comparison to Taxol.
(§4) c) IC50 values [nM] for the growth inhibition of human MCF-7-breast- and multi-drug-resistant NCl/ADR-carcinoma cell lines of epothilone derivatives with 13,14-epoxide, which was formed from the 13-E-configured double bond, in a crystal-violet assay in comparison to Taxol.

Experiment [2] deals with NCl/ADR. Description: growth inhibition of multi-drug-resistant NCl/ADR carcinoma cell line, crystal-violet assay. As to conditions: for IC50: crystal-violet assay, multi-drug-resistant line; for Selectivity = IC50-(NCl/ADR): IC50 (MCF-7): Table 1, ratio NCl/ADR to MCF-7. The format is cell-based, human.
Source text: as §1, §2, §3, §4

The mark [3] stands for this setting: Table 1, epothilone derivatives with 13Z-unsaturated.
[4] abbreviates: Table 3, 13,14-epoxide formed from the 13-E-configured double bond.
The mark [5] stands for this setting: Table 3, ratio NCl/ADR to MCF-7.
Setting [6] is: Table 2, 13,14-α-epoxide formed from the 13-Z-configured double bond.
The mark [7] stands for this setting: Table 2, ratio NCl/ADR to MCF-7.

The record followed here is patent US20100168179A1, “6-ALKENYL-, 6-ALKINYL- AND 6-EPOXY-EPOTHILONE DERIVATIVES, PROCESS FOR THEIR PRODUCTION, AND THEIR USE IN PHARMACEUTICAL PREPARATIONS” (priority 1999, published 2010).

Each structure is given as a SMILES string.

By IC50 is commonly meant the concentration at which inhibition is half-maximal. Read a low IC50 as greater potency in that assay. With `C#CC[C@H]1C(=O)C(C)(C)[C@@H](O)CC(=O)O[C@H](/C(F)=C/c2coc(C)n2)C/C=C(/C)CCC[C@H](C)[C@@H]1O` [Example 27, (4S,7R,8S,9S,13Z,16S(Z))-4,8-Dihydroxy-16-(1-fluoro-2-(2-methyloxazol-4-yl)ethenyl)-7-(prop-2-in-1-yl)-1-oxa-5,5,9,13-tetramethyl-cyclohexadec-13-ene-2,6-dione], the half-inhibitory concentration (IC50) in experiment [1] (setting [3]) was 0.025 µM; in experiment [2] (setting [3]), 0.041 µM. In experiment [2], the “Selectivity = IC50-(NCl/ADR): IC50 (MCF-7)” value is reported as 1.6.
Regarding `C=CC[C@H]1C(=O)C(C)(C)[C@@H](O)CC(=O)O[C@H](/C(C)=C/c2csc(C)n2)C[C@H]2O[C@]2(C)CCC[C@H](C)[C@@H]1O` [Example 12A or B, (1R,3S(E),7S,10R,11S,12S,16R)-7,11-Dihydroxy-10-(prop-2-en-1-yl)-3-(1-methyl-2-(2-methylthiazol-4-yl)ethenyl)-8,8,12,16-tetramethyl-4,17-dioxabicyclo[14.1.0]heptadecane-5,9-dione], the half-maximal inhibitory concentration (IC50) in experiment [1] (setting [4]) came to 0.04 µM; in experiment [2] (setting [4]), 0.061 µM. In addition, the “Selectivity = IC50-(NCl/ADR): IC50-(MCF-7)” value in experiment [2] (setting [5]) came to 1.5.
As to `C#CC[C@H]1C(=O)C(C)(C)[C@@H](O)CC(=O)O[C@H](/C(C)=C/c2ccccn2)C/C=C(/C)CCC[C@H](C)[C@@H]1O` [Example 13, (4S,7R,8S,9S,13Z,16S(E))-4,8-Dihydroxy-16-(1-methyl-2-(2-pyridyl)ethenyl)-1-oxa-5,5,9,13-tetramethyl-7-(prop-2-in-1-yl)-cyclohexadec-13-ene-2,6-dione], the IC50 in experiment [1] (setting [3]) is 0.034 µM.
Regarding `CC(=O)O[C@H]1C(=O)[C@@]2(C)[C@H]([C@H](OC(=O)c3ccccc3)[C@]3(O)C[C@H](OC(=O)[C@H](O)[C@@H](NC(=O)c4ccccc4)c4ccccc4)C(C)=C1C3(C)C)[C@]1(OC(C)=O)CO[C@@H]1C[C@@H]2O` [Taxol, reference compound], the IC50 was 0.0035 µM in experiment [1] (Homo sapiens, MCF7, Table 1, epothilone derivatives with 13Z-unsaturated); over 0.1 µM in experiment [2] (Homo sapiens, Table 1, epothilone derivatives with 13Z-unsaturated); over 0.1 µM in experiment [2] (setting [6]); over 0.1 µM in experiment [2] (setting [4]). The “Selectivity = IC50-(NCl/ADR): IC50 (MCF-7)” value in experiment [2] is reported as over 28.6. The “Selectivity = IC50-(NCl/ADR): IC50-(MCF-7)” value in experiment [2] (setting [7]) and in experiment [2] (setting [5]) was over 29 each time. Moreover, the “action on the multi-drug-resistant cell line NCl/ADR” value in experiment [2] (in words, in comparison to Taxol) is given as “not exhibited”.
As to `C#CC[C@H]1C(=O)C(C)(C)[C@@H](O)CC(=O)O[C@H](/C(F)=C/c2csc(C)n2)C[C@@H]2O[C@@]2(C)CCC[C@H](C)[C@@H]1O` [Example 26A or B, (1S,3S(Z),7S,10R,11S,12S,16S)-7,11-Dihydroxy-3-(1-fluoro-2-(2-methyl-4-thiazolyl)ethenyl)-10-(prop-2-in-1-yl)-8,8,12,16-tetramethyl-4,17-dioxabicyclo[14.1.0]heptadecane-5,9-dione], the results for the IC50 in experiment [1] (setting [4]) and in experiment [2] (setting [4]) were 0.018 µM and 0.06 µM, respectively. For the same molecule, in experiment [2] (setting [5]), the “Selectivity = IC50-(NCl/ADR): IC50-(MCF-7)” value is 3.3.
Take `C=CCC[C@H]1C(=O)C(C)(C)[C@@H](O)CC(=O)O[C@H](/C(C)=C/c2ccccn2)C[C@@H]2O[C@]2(C)CCC[C@H](C)[C@@H]1O` [Example 5A, (1S,3S(E),7S,10R,11S,12S,16R)-7,11-Dihydroxy-10-(but-3-en-1-yl)-3-(1-methyl-2-(2-pyridyl)ethenyl)-8,8,12,16-tetramethyl-4,17-dioxabicyclo[14.1.0]heptadecane-5,9-dione]: the concentration for half-maximal inhibition (IC50) is 0.0031 µM in experiment [1] (setting [6]) and 0.0038 µM in experiment [2] (setting [6]). Besides, in experiment [2] (setting [7]), the “Selectivity = IC50-(NCl/ADR): IC50-(MCF-7)” value came to 1.2.
For `C=CC[C@H]1C(=O)C(C)(C)[C@@H](O)CC(=O)O[C@H](/C(C)=C/c2ccccn2)C/C=C(/C)CCC[C@H](C)[C@@H]1O` [Example 15, (4S,7R,8S,9S,13Z,16S(E))-4,8-Dihydroxy-16-(1-methyl-2-(2-pyridyl)ethenyl)-1-oxa-5,5,9,13-tetramethyl-7-(prop-2-en-1-yl)-cyclohexadec-13-ene-2,6-dione], half-maximal inhibition in experiment [1] (setting [3]) (IC50) required 0.025 µM.
On the same count and under the same terms, as for `C=CC[C@H]1C(=O)C(C)(C)[C@@H](O)CC(=O)O[C@H](c2ccc3oc(C)nc3c2)C/C=C(/C)CCC[C@H](C)[C@@H]1O` [Example 21, (4S,7R,8S,9S,13Z,16S(E))-4,8-Dihydroxy-16-(2-methyl-benzoxazol-5-yl)-1-oxa-5,5,9,13-tetramethyl-7-(prop-2-en-1-yl)-cyclohexadec-13-ene-2,6-dione], the figure is 0.032 µM.
In the case of `C=CC[C@H]1C(=O)C(C)(C)[C@@H](O)CC(=O)O[C@H](/C(C)=C/c2csc(C)n2)C[C@@H]2O[C@]2(C)CCC[C@H](C)[C@@H]1O` [Example 10A, (1S,3S(E),7S,10R,11S,12S,16R)-7,11-Dihydroxy-10-(prop-2-en-1-yl)-3-(1-methyl-2-(2-methylthiazol-4-yl)ethenyl)-8,8,12,16-tetramethyl-4,17-dioxabicyclo[14.1.0]heptadecane-5,9-dione], the IC50 turned out to be 0.0012 µM in experiment [1] (setting [6]) and 0.0036 µM in experiment [2] (setting [6]). Moreover, the “Selectivity = IC50-(NCl/ADR): IC50-(MCF-7)” value in experiment [2] (setting [7]) was found to be 3.0.
The corresponding values for `C#CC[C@H]1C(=O)C(C)(C)[C@@H](O)CC(=O)O[C@H](/C(F)=C/c2csc(C)n2)C[C@@H]2O[C@]2(C)CCC[C@H](C)[C@@H]1O` [Example 25, (1S,3S(Z),7S,10R,11S,12S,16R)-7,11-Dihydroxy-3-(1-fluoro-2-(2-methyl-4-thiazolyl)ethenyl)-10-(prop-2-in-1-yl)-8,8,12,16-tetramethyl-4,17-dioxabicyclo[14.1.0]heptadecane-5,9-dione] are 0.0023 µM, 0.011 µM and 4.8.
Take `C#CC[C@H]1C(=O)C(C)(C)[C@@H](O)CC(=O)O[C@H](/C(F)=C/c2csc(C)n2)C/C=C(/C)CCC[C@H](C)[C@@H]1O` [Example 23, (4S,7R,8S,9S,13Z,16S(Z))-4,8-Dihydroxy-16-(1-fluoro-2-(2-methylthiazol-4-yl)ethenyl)-7-(prop-2-in-1-yl)-1-oxa-5,5,9,13-tetramethyl-cyclohexadec-13-ene-2,6-dione]: the results for the IC50 in experiment [1] (setting [3]) and in experiment [2] (setting [3]) were 0.011 µM and 0.062 µM, respectively. The “Selectivity = IC50-(NCl/ADR): IC50 (MCF-7)” value in experiment [2] is reported as 5.6.
For `C#CCC[C@H]1C(=O)C(C)(C)[C@@H](O)CC(=O)O[C@H](/C(C)=C/c2ccccn2)C[C@@H]2OC2(C)CCC[C@H](C)[C@@H]1O` (single isomer, unassigned) [Example 6A or B], the results for the IC50 in experiment [1] (setting [4]) and in experiment [2] (setting [4]) were 0.0043 µM and 0.068 µM, respectively. The “Selectivity = IC50-(NCl/ADR): IC50-(MCF-7)” value in experiment [2] (setting [5]) stood at 15.8.
Take `C#CCC[C@H]1C(=O)C(C)(C)[C@@H](O)CC(=O)O[C@H](/C(C)=C/c2ccccn2)C/C=C(/C)CCC[C@H](C)[C@@H]1O` [Example 1, (4S,7R,8S,9S,13Z,16S(E))-4,8-Dihydroxy-16-(1-methyl-2-(2-pyridyl)ethenyl)-1-oxa-5,5,9,13-tetramethyl-7-(but-3-in-1-yl)-cyclohexadec-13-ene-2,6-dione]: the IC50 is 0.03 µM in experiment [1] (setting [3]) and 0.075 µM in experiment [2] (setting [3]). In experiment [2], the “Selectivity = IC50-(NCl/ADR): IC50 (MCF-7)” value was determined as 2.5.
As to `C#CCC[C@H]1C(=O)C(C)(C)[C@@H](O)CC(=O)O[C@H](/C(C)=C/c2ccccn2)C[C@@H]2O[C@]2(C)CCC[C@H](C)[C@@H]1O` [Example 4A, (1S,3S(E),7S,10R,11S,12S,16R)-7,11-Dihydroxy-10-(but-3-in-1-yl)-3-(1-methyl-2-(2-pyridyl)ethenyl)-8,8,12,16-tetramethyl-4,17-dioxabicyclo[14.1.0]heptadecane-5,9-dione], the IC50 in experiment [1] (setting [6]) worked out at 0.0013 µM; in experiment [2] (setting [6]), 0.0091 µM. Moreover, the “Selectivity = IC50-(NCl/ADR): IC50-(MCF-7)” value in experiment [2] (setting [7]) is recorded as 7.0.
Turning to `C=CC[C@H]1C(=O)C(C)(C)[C@@H](O)CC(=O)O[C@H](/C(C)=C/c2csc(C)n2)C/C=C(/C)CCC[C@H](C)[C@@H]1O` [Example 9, (4S,7R,8S,9S,13Z,16S(E))-4,8-Dihydroxy-16-(1-methyl-2-(2-methylthiazol-4-yl)ethenyl)-1-oxa-5,5,9,13-tetramethyl-7-(prop-2-en-1-yl)-cyclohexadec-13-ene-2,6-dione], the IC50 came out at 0.017 µM in experiment [1] (setting [3]) and 0.041 µM in experiment [2] (setting [3]). In experiment [2], the “Selectivity = IC50-(NCl/ADR): IC50 (MCF-7)” value turned out to be 2.4.
Consider `C=CC[C@H]1C(=O)C(C)(C)[C@@H](O)CC(=O)O[C@H](/C(C)=C/c2csc(C)n2)CC2O[C@@]2(C)CCC[C@H](C)[C@@H]1O` (single isomer, unassigned) [Example 12B or A], for which the IC50 in experiment [1] (setting [4]) was 0.0048 µM; in experiment [2] (setting [4]), 0.053 µM. Besides, the “Selectivity = IC50-(NCl/ADR): IC50-(MCF-7)” value in experiment [2] (setting [5]) was 11.0.
For the molecule `C=CCC[C@H]1C(=O)C(C)(C)[C@@H](O)CC(=O)O[C@H](/C(C)=C/c2ccccn2)C/C=C(/C)CCC[C@H](C)[C@@H]1O` [Example 2, (4S,7R,8S,9S,13Z,16S(E))-4,8-Dihydroxy-16-(1-methyl-2-(2-pyridyl)ethenyl)-1-oxa-5,5,9,13-tetramethyl-7-(but-3-en-1-yl)-cyclohexadec-13-ene-2,6-dione], the results for the IC50 in experiment [1] (setting [3]) and in experiment [2] (setting [3]) were 0.025 µM and 0.07 µM, respectively. In addition, in experiment [2], the “Selectivity = IC50-(NCl/ADR): IC50 (MCF-7)” value was 2.8.
